The text below walks through data of ChEMBL document CHEMBL1938249, “Synthesis, antimalarial activity, and structure-activity relationship of 7-(2-phenoxyethoxy)-4(1H)-quinolones” (J Med Chem, 2011).

Data set [1] deals with Plasmodium falciparum. Kind of data set: Antimalarial activity against chloroquine-, pyrimethamine-resistant ring stage Plasmodium falciparum W2 infected in human A positive erythrocytes after 72 hrs by SYBR green 1-based fluorescence assay. It is filed as functional, organism-based. Particulars: W2, 72 h.
The nature of data set [2]: Cytotoxicity index, ratio of EC50 for mouse J774 cells to EC50 for chloroquine-, mefloquine, pyrimethamine-,atovaquone-resistant ring stage Plasmodium falciparum TM90-C2B. Format: cell-based. To be noted: read-out: Ratio EC50.
Data set [3] relates to Plasmodium falciparum. Kind of data set: Resistance ratio, ratio of EC50 for chloroquine-, mefloquine, pyrimethamine-,atovaquone-resistant ring stage Plasmodium falciparum TM90-C2B to EC50 for chloroquine-, pyrimethamine-resistant Plasmodium falciparum W2. Format: functional.
In data set [4] the test system is J774. Kind of data set: Antiproliferative against mouse J774 cells at < 20 uM after 72 hrs by Cell titer assay. Format: cell-based. Particulars: j774, 72 h.
Data set [5] deals with Plasmodium falciparum. Kind of data set: Antimalarial activity against chloroquine-, mefloquine-, pyrimethamine-,atovaquone-resistant ring stage Plasmodium falciparum TM90-C2B infected in human A positive erythrocytes after 72 hrs by SYBR green 1-based fluorescence assay. It is filed as functional, organism-based.
Data set [6] has as its system J774. Kind of data set: Antiproliferative against mouse J774 cells after 72 hrs by Cell titer assay. It is filed as cell-based. To be noted: J774, 72 h.

pEC50: −log10 of the molar value.

For orientation: pEC50 means −log10 of the EC50, conventionally taken in molar units.

In the case of `CCc1c(C)[nH]c2cc(OCCN(C)C)c(Cl)cc2c1=O`, the negative logarithm of the EC50 (pEC50) in data set [1] was 5.30; in data set [5], 6.22. Also, the selectivity ratio in data set [2] is at least 100. Besides, the “Ratio EC50” value in data set [3] is listed as 0.12. Besides, the Activity entry in data set [4] is on record as “Non-toxic”.
On to `CCCCc1cc2c(=O)c(-c3c(C)noc3C)c(C)[nH]c2cc1OCCOc1ccccc1`, for which the negative-log EC50 (pEC50) is 7.57 in data set [1], 4.66 in data set [6] and 6.89 in data set [5]. Besides, in data set [2], the selectivity ratio was at least 100. For the same compound, in data set [3], the “Ratio EC50” value amounted to 4.73. Moreover, the Activity entry in data set [4] is on record as “Non-toxic”.
Take `CCCCc1cc2c(=O)c(CC)c(C)[nH]c2cc1OCCOc1ccccc1`: the values for the negative-log EC50 (pEC50) in data set [1], in data set [6] and in data set [5] were 8.72, 6.00 and 9.82, respectively. Also, the selectivity ratio in data set [2] is at least 100. In addition, the “Ratio EC50” value in data set [3] is given as 0.08. For the same compound, in data set [4], the Activity entry was “Non-toxic”.
For the compound `COC(=O)c1c[nH]c2cc(OC)c(Cl)cc2c1=O`, the results for the pEC50 in data set [1], in data set [6] and in data set [5] were 6.87, 4.43 and 6.12, respectively. Moreover, the selectivity ratio in data set [2] was at least 100. The “Ratio EC50” value in data set [3] came to 5.7. Moreover, the Activity entry in data set [4] is “Non-toxic”.
With `CCCCc1cc2c(=O)c(-c3ccc(Cl)cc3C)c(C)[nH]c2cc1OCCOc1ccccc1`, the pEC50 in data set [1] was 7.16; in data set [6] it was under 4.68; in data set [5] it was 6.27. Also, in data set [2], the selectivity ratio was at least 100. In addition, in data set [3], the “Ratio EC50” value was determined as 7.89. Also, the Activity result in data set [4] is “Non-toxic”.
For `CCCCc1cc2c(=O)c(-c3ccc(C(F)(F)F)cc3)c(C)[nH]c2cc1OCCOc1ccccc1`, the pEC50 in data set [1] was 6.29; in data set [6], 4.70; in data set [5], 5.61. Also, in data set [2], the selectivity ratio is at least 100. Also, the “Ratio EC50” value in data set [3] turned out to be 4.82. For the same compound, the Activity entry in data set [4] was “Non-toxic”.
In the case of `CCc1c(C)[nH]c2cc(OCCCO)c(Cl)cc2c1=O`, the pEC50 in data set [1] is 5.07; in data set [5] it was 6.11. Besides, in data set [2], the selectivity ratio is at least 100. Further, in data set [3], the “Ratio EC50” value was found to be 0.09. The Activity entry in data set [4] is reported as “Non-toxic”.
Consider `CCc1c(C)[nH]c2cc(OCCOc3ccccc3)c(OC)cc2c1=O`, for which the pEC50 in data set [1] is 6.74; in data set [6], under 4.54; in data set [5], 7.71. Further, the selectivity ratio in data set [2] is at least 100. Moreover, in data set [3], the “Ratio EC50” value is recorded as 0.11. Besides, the Activity entry in data set [4] is reported as “Non-toxic”.
Take `CCCCc1cc2c(=O)cc(C)[nH]c2cc1OCCOc1ccccc1`: the pEC50 in data set [1] is 6.67; in data set [6] it was 4.55; in data set [5] it was 7.36. Also, the selectivity ratio in data set [2] is at least 100. Besides, the “Ratio EC50” value in data set [3] is 0.2. Further, the Activity entry in data set [4] is listed as “Non-toxic”.
The compound `O=C1C(O)=C([C@H]2CC[C@H](c3ccc(Cl)cc3)CC2)C(=O)c2ccccc21` [ATOVAQUONE] had a pEC50 in data set [5] of under 6.77.
Regarding `CCCCc1cc2c(=O)c(-c3ccc(C)cc3C)c(C)[nH]c2cc1OCCOc1ccccc1`, the results for the pEC50 in data set [1], in data set [6] and in data set [5] were 6.04, 4.66 and 5.79, respectively. In addition, in data set [2], the selectivity ratio was at least 100. Besides, the “Ratio EC50” value in data set [3] was 1.79. In addition, the Activity result in data set [4] was “Non-toxic”.
With `CCCCc1cc2c(=O)c(-c3cccnc3)c(C)[nH]c2cc1OCCOc1ccccc1`, the negative logarithm of the EC50 (pEC50) in data set [1] was 5.87; in data set [6], 4.64; in data set [5], 6.23. In addition, in data set [2], the selectivity ratio is at least 100. In addition, the “Ratio EC50” value in data set [3] is reported as 0.44. In addition, in data set [4], the Activity entry is “Non-toxic”.
For `CCc1c(C)[nH]c2cc(OCCN3CCOCC3)c(Cl)cc2c1=O`, the negative-log EC50 (pEC50) in data set [1] is 5.29; in data set [5] it was 6.14. Besides, the selectivity ratio in data set [2] was at least 100. Moreover, in data set [3], the “Ratio EC50” value is given as 0.14. For the same compound, the Activity entry in data set [4] is “Non-toxic”.
As to `CCc1c(C)[nH]c2cc(OCCOc3ccccc3)c(C)cc2c1=O`, the pEC50 in data set [1] is 6.59; in data set [6], under 4.52; in data set [5], 7.56. Moreover, the selectivity ratio in data set [2] was at least 100. For the same compound, the “Ratio EC50” value in data set [3] was 0.11. In data set [4], the Activity entry is reported as “Non-toxic”.
Consider `CCCCc1cc2c(=O)c(-c3ccc(Oc4ccc(OC(F)(F)F)cc4)cc3C)c(C)[nH]c2cc1OCCOc1ccccc1`, for which the results for the pEC50 in data set [1], in data set [6] and in data set [5] were 7.23, 4.80 and 6.32, respectively. Also, the selectivity ratio in data set [2] is at least 100. Further, the “Ratio EC50” value in data set [3] is on record as 8.12. Besides, the Activity entry in data set [4] is listed as “Non-toxic”.
On to `CCCCc1cc2c(=O)c(-c3ccc(OC(F)(F)F)cc3)c(C)[nH]c2cc1OCCOc1ccccc1`, for which the values for the pEC50 in data set [1], in data set [6] and in data set [5] were 5.49, 4.70 and 5.60, respectively. Further, the selectivity ratio in data set [2] was at least 100. In addition, the “Ratio EC50” value in data set [3] came out at 0.78. Also, the Activity result in data set [4] is recorded as “Non-toxic”.
Regarding `CCCCc1cc2c(=O)c(-c3ccc(C(F)(F)F)cc3C)c(C)[nH]c2cc1OCCOc1ccccc1`, the pEC50 in data set [1] was 7.14; in data set [6], 4.70; in data set [5], 6.85. Further, the selectivity ratio in data set [2] is at least 100. Also, in data set [3], the “Ratio EC50” value worked out at 1.95. Further, in data set [4], the Activity result is “Non-toxic”.
On to `CCc1c(C)[nH]c2cc(OCCOc3ccccc3)ccc2c1=O`, for which the negative logarithm of the EC50 (pEC50) in data set [1] is 6.98; in data set [6], 5.40; in data set [5] it was 7.15. Besides, in data set [2], the selectivity ratio was at least 100. In addition, the “Ratio EC50” value in data set [3] is on record as 0.79. The Activity result in data set [4] is “Non-toxic”.
As for `CCc1c(C)[nH]c2cc(OCCCOC(=O)C(CC)C(C)=O)c(Cl)cc2c1=O` (stereo not given), the pEC50 in data set [1] and in data set [5] was 5.21 in each case. Besides, the selectivity ratio in data set [2] was at least 100. Further, the “Ratio EC50” value in data set [3] is recorded as 1. For the same compound, the Activity result in data set [4] is given as “Non-toxic”.
Regarding `CCCCc1cc2c(=O)c(-c3ccncc3)c(C)[nH]c2cc1OCCOc1ccccc1`, the pEC50 was 5.50 in data set [1], 4.64 in data set [6] and 5.99 in data set [5]. Further, the selectivity ratio in data set [2] is at least 100. Further, the “Ratio EC50” value in data set [3] is listed as 0.32. Moreover, the Activity entry in data set [4] is “Non-toxic”.
`CCCCc1cc2c(=O)c(-c3cccc(Oc4ccc(F)cc4)c3)c(C)[nH]c2cc1OCCOc1ccccc1`: the pEC50 in data set [1] was 5.86; in data set [6], 4.72; in data set [5] it was 6.00. Besides, in data set [2], the selectivity ratio is at least 100. The “Ratio EC50” value in data set [3] was 0.72. Further, the Activity result in data set [4] was “Non-toxic”.
For `CCc1c(C)[nH]c2cc(OCOC)c(Cl)cc2c1=O`, the negative logarithm of the EC50 (pEC50) in data set [1] is 6.04; in data set [6], 4.72; in data set [5] it was 7.10. The selectivity ratio in data set [2] is at least 100. For the same compound, the “Ratio EC50” value in data set [3] came to 0.09. Besides, the Activity entry in data set [4] is reported as “Non-toxic”.
`CCc1c(C)[nH]c2cc(OCCOc3ccccc3)c(Br)cc2c1=O`: the pEC50 was 6.69 in data set [1], under 4.60 in data set [6] and 7.36 in data set [5]. For the same compound, the selectivity ratio in data set [2] was at least 100. Moreover, the “Ratio EC50” value in data set [3] turned out to be 0.21. In addition, in data set [4], the Activity result was “Non-toxic”.
Take `CCc1c(C)[nH]c2cc(OCCCN3CCN(c4ccccc4)CC3)c(Cl)cc2c1=O`: the values for the pEC50 in data set [1], in data set [6] and in data set [5] were 6.01, under 4.64 and 7.04, respectively. In data set [2], the selectivity ratio was at least 100. Besides, the “Ratio EC50” value in data set [3] worked out at 0.09. Further, the Activity entry in data set [4] is listed as “Non-toxic”.
Consider `CCCCc1cc2c(=O)c(C(=O)OC)c[nH]c2cc1OCCOc1ccccc1`, for which the pEC50 is 10.30 in data set [1], 4.34 in data set [6] and 7.95 in data set [5]. For the same compound, in data set [2], the selectivity ratio is at least 100. Besides, the “Ratio EC50” value in data set [3] amounted to 223. Moreover, the Activity result in data set [4] is recorded as “Non-toxic”.
Consider `CCc1c(C)[nH]c2cc(OCCOc3ccccc3)c(Cl)cc2c1=O`, for which the negative-log EC50 (pEC50) in data set [1] is 6.59; in data set [6], under 4.55; in data set [5], 7.14. Also, the selectivity ratio in data set [2] is at least 100. Besides, the “Ratio EC50” value in data set [3] is reported as 0.28. Moreover, the Activity result in data set [4] is reported as “Non-toxic”.
In the case of `CCCCc1cc2c(=O)c(-c3ccccc3)c(C)[nH]c2cc1OCCOc1ccccc1`, the pEC50 in data set [1] was 5.97; in data set [6], 4.64; in data set [5] it was 6.12. For the same compound, the selectivity ratio in data set [2] was at least 100. In data set [3], the “Ratio EC50” value came to 0.71. In addition, the Activity result in data set [4] is “Non-toxic”.
Consider `CCCCc1cc2c(=O)c(-c3ccc(C(F)(F)F)cc3F)c(C)[nH]c2cc1OCCOc1ccccc1`, for which the pEC50 in data set [1] is 7.55; in data set [6], 4.72; in data set [5], 7.51. Also, the selectivity ratio in data set [2] is at least 100. Also, the “Ratio EC50” value in data set [3] worked out at 1.11. Also, the Activity result in data set [4] is “Non-toxic”.
In the case of `CCCCc1cc2c(=O)c(-c3ccc(COc4ccc(OC(F)(F)F)cc4)cc3)c(C)[nH]c2cc1OCCOc1ccccc1`, the pEC50 in data set [1] is 5.39; in data set [6], 4.80; in data set [5], 5.39. Moreover, in data set [2], the selectivity ratio is at least 100. Also, the “Ratio EC50” value in data set [3] was determined as 1. Moreover, in data set [4], the Activity result is recorded as “Non-toxic”.
